Paper PMC8482815, “Targeting Host Glycolysis as a Strategy for Antimalarial Development” (Frontiers in Cellular and Infection Microbiology, 2021)
Where “and” joins values, the source holds several entries; their conditions need not be identical. Equal values may be shown once.

System: human erythrocytes
Experiment: Untargeted metabolomics and 13C-glucose tracing of enolase inhibitor treated erythrocytes
Type: cell-based
Conditions: 1h
Experimental: Freshly collected erythrocytes were washed, resuspended to 10% hematocrit in buffer [25mM HEPES (pH 7.4), 120mM NaCl, 5.4mM KCl, 1.8mM CaCl2, and 1mM NaH2PO4], incubated for 1 hour at 37°C, then centrifuged at 2000xg for 5 minutes at 4°C, resuspended in fresh wash buffer to 30-40% hematocrit, and split into 210µL aliquots of packed erythrocytes. […] All samples were incubated at 37°C shaking at 500 RPM. Triplicate samples of supernatants and packed erythrocytes were collected at 0, 0.5, 1, and 6-hour intervals and snap-frozen in liquid N2.
RBC and media samples were extracted at 1:10 and 1:20 dilutions, respectively, in 5:3:2 MeOH : MeCN:H2O v/v/v, and supernatants analyzed on a Thermo Vanquish UHPLC coupled to a Thermo Q Exactive mass spectrometer, as extensively described ([Nemkov et al., 2015]; [Nemkov et al., 2017]). The extraction buffer was supplemented with 40uM 3-^13C lactate to allow absolute quantification of lactate isotopologues, including lactate generated via glycolysis ([1,2,3-^13C3] enriched) vs. the pentose phosphate pathway ([2,3-^13C2] enriched), as described ([Reisz et al., 2016]). Metabolite assignments, peak area integration and isotopologues distributions were determined using Maven (Princeton University) ([Nemkov et al., 2015]; [Nemkov et al., 2017]).
Data were auto-scaled and normalized to zero-hour time points. Metabolites were removed from the dataset if greater than 50% of the samples contained missing values or the relative standard deviation among replicates exceeded 25%. Additionally, data was filtered using the interquartile range to reduce near-constant values from the experiment by 5%.
A principal component analysis of preprocessed data was plotted with the 95% confidence interval minimum volume enclosing ellipsoid for each respective group (MetaboAnalyst, cluster, plotly). A two-way repeated measures analysis of variance (ANOVA) was performed with multiple comparisons corrected for using a false discovery rate p-value cutoff of 0.05. Metabolite-Pathway analysis was performed using the R package of MetaboAnalyst, as previously described ([Xia and Wishart, 2010]). Metabolite-Protein nodal analysis was performed using omicsnet.ca and as previously described ([Zhou and Xia, 2018]).

[1] = treated erythrocytes, one value per replicate sample, polarity +
[2] = treated erythrocytes, one value per replicate sample, polarity -
[3] = treated erythrocytes, replicate samples

CC(C)(C)C(=O)OCOP(=O)(OCOC(=O)C(C)(C)C)C1CCCN(O)C1=O (stereo not shown) [POMHEX]
AMP level (metabolomics signal) (replicate samples): 1.96E+06 and 2.60E+06 and 1.22E+06
ATP level (metabolomics signal) (replicate samples): 1.32E+04 and 2.11E+04 and 3.43E+04
Adenine level (metabolomics signal) (replicate samples): 1.75E+05 and 1.63E+05 and 1.61E+05
Cytosine level (metabolomics signal) (replicate samples): 4.76E+05 and 3.43E+05 and 2.67E+05
L-alanine level (metabolomics signal) (replicate samples): 1.12E+07 and 9.08E+06 and 1.05E+07
L-arginine level (metabolomics signal) (replicate samples): 4.18E+06 and 1.19E+07 and 3.04E+06
L-asparagine level (metabolomics signal) (replicate samples): 7.53E+06 and 8.13E+06 and 7.16E+06
L-aspartate level (metabolomics signal) (replicate samples): 2.28E+07 and 2.29E+07 and 1.75E+07
L-cysteine level (metabolomics signal) (replicate samples): 2.57E+05 and 1.28E+06 and 6.21E+05
L-glutamate level (metabolomics signal) (replicate samples): 2.16E+07 and 2.10E+07 and 1.73E+07
L-glutamine level (metabolomics signal) (replicate samples): 6.97E+07 and 8.81E+07 and 6.57E+07
L-histidine level (metabolomics signal) (replicate samples): 1.22E+06 and 1.29E+06 and 1.07E+06
L-isoleucine level (metabolomics signal) (replicate samples): 9.19E+06 and 1.31E+07 and 8.52E+06
L-leucine level (metabolomics signal) (replicate samples): 1.97E+08 and 2.85E+08 and 1.36E+08
L-lysine level (metabolomics signal) (replicate samples): 1.46E+06 and 1.53E+06 and 1.05E+06
L-methionine level (metabolomics signal) (replicate samples): 1.81E+07 and 2.91E+07 and 1.59E+07
L-phenylalanine level (metabolomics signal) (replicate samples): 1.22E+07 and 1.56E+07 and 8.20E+06
L-proline level (metabolomics signal) (replicate samples): 4.14E+07 and 6.25E+07 and 4.63E+07
L-serine level (metabolomics signal) (replicate samples): 6.19E+06 and 5.89E+06 and 5.91E+06
L-threonine level (metabolomics signal) (replicate samples): 7.85E+06 and 8.68E+06 and 7.03E+06
L-tryptophan level (metabolomics signal) (replicate samples): 4.00E+06 and 3.89E+06 and 2.67E+06
L-tyrosine level (metabolomics signal) (replicate samples): 2.39E+07 and 3.62E+07 and 2.21E+07
L-valine level (metabolomics signal) (replicate samples): 1.59E+08 and 1.34E+08 and 1.66E+08
dCMP level (metabolomics signal) (replicate samples): 6.47E+03 and 1.42E+04 and 8.65E+03
dTMP level (metabolomics signal) (replicate samples): 6.95E+05 and 1.44E+06 and 5.66E+05
glycine level (metabolomics signal) (replicate samples): 2.53E+06 and 2.52E+06 and 2.98E+06
N-Acyl-D-aspartate (C06380) metabolite signal [1]: 1.39E+05 and 1.05E+05 and 7.72E+04
Poly-gamma-D-glutamate (C05723) metabolite signal [1]: 4.55E+07 and 6.01E+07 and 4.31E+07
D-Ribitol 5-phosphate (C01068) metabolite signal [2]: 1.36E+04 and 3.79E+04 and 1.11E+04
D-glucono-1,5-lactone (C00198) metabolite signal [2]: 3.37E+05 and 3.01E+05 and 3.48E+05
L-Noradrenaline (C00547) metabolite signal [2]: 3.29E+04 and 4.04E+04 and 2.83E+04
Oxalosuccinate (C05379) metabolite signal [2]: 9.85E+04 and 9.72E+04 and 1.00E+05
Pyridoxamine (C00534) metabolite signal [2]: 1.26E+04 and 1.81E+04 and 8.56E+03
Thioredoxin disulfide (C00343) metabolite signal [2]: 3.49E+04 and 1.17E+05 and 2.13E+04
1-4-beta-D-Xylan (metabolite signal) [3]: 1.76E+05 and 2.60E+05 and 1.54E+05
2-Hydroxyglutarate/Citramalate (C02630) metabolite signal [3]: 4.45E+04 and 4.76E+04 and 4.24E+04
5-6-Dihydrothymine (C00906) metabolite signal [3]: 2.57E+05 and 3.03E+05 and 1.85E+05
5-10-Methenyltetrahydrofolate (metabolite signal) [3]: 1.81E+05 and 1.74E+05 and 1.10E+05
5-Hydroxyisourate (C11821) metabolite signal [3]: 4.87E+06 and 2.62E+06 and 4.93E+06
5-L-Glutamyl-taurine (metabolite signal) [3]: 1.73E+05 and 9.38E+04 and 2.11E+05
5-Oxoproline (metabolite signal) [3]: 5.99E+05 and 6.10E+05 and 6.21E+05
(S)(+)-Allantoin (C02350) metabolite signal [3]: 1.83E+04 and 1.70E+04 and 1.48E+04
Allantoate (C00499) metabolite signal [3]: 1.28E+05 and 4.06E+05 and 1.02E+05
Ascorbate (metabolite signal) [3]: 6.30E+04 and 1.08E+05 and 4.97E+04
CMP-N-acetylneuraminate (metabolite signal) [3]: 6.05E+03 and 4.63E+03 and 2.62E+03
Carnosine (metabolite signal) [3]: 2.09E+05 and 1.71E+05 and 1.90E+05
Citrate (C00158) metabolite signal [3]: 1.89E+04 and 2.10E+04 and 1.46E+04
Creatine (metabolite signal) [3]: 2.57E+08 and 2.12E+08 and 2.30E+08
Creatinine (metabolite signal) [3]: 2.38E+06 and 2.51E+06 and 2.49E+06
Cys-Gly (metabolite signal) [3]: 7.57E+05 and 1.20E+06 and 8.09E+05
D-Glucosamine (metabolite signal) [3]: 6.03E+05 and 3.34E+05 and 1.05E+06
D-Glucose (C00031) metabolite signal [3]: 4.53E+06 and 6.78E+06 and 3.73E+06
D-Ribose (C00121) metabolite signal [3]: 1.22E+05 and 1.96E+05 and 1.18E+05
Dehydroascorbate (metabolite signal) [3]: 4.03E+04 and 3.78E+04 and 2.56E+04
Dihydrofolate (metabolite signal) [3]: 6.94E+05 and 1.83E+06 and 6.55E+05
Dimethylglycine (metabolite signal) [3]: 1.12E+06 and 8.60E+05 and 1.04E+06
Diphosphate (C00013) metabolite signal [3]: 1.40E+04 and 3.85E+04 and 1.73E+04
Fumarate (C00122) metabolite signal [3]: 8.16E+04 and 8.08E+04 and 7.78E+04
Glutathione (C00051) metabolite signal [3]: 5.06E+07 and 7.77E+07 and 5.74E+07
Glutathione disulfide (metabolite signal) [3]: 7.45E+04 and 7.57E+04 and 5.41E+04
Hypoxanthine (C00262) metabolite signal [3]: 6.66E+03 and 1.71E+04 and 1.69E+04
IMP (C00130) metabolite signal [3]: 7.81E+04 and 9.15E+04 and 6.22E+04
Inosine (C00294) metabolite signal [3]: 6.22E+04 and 5.44E+04 and 6.05E+04
L-Citrulline (metabolite signal) [3]: 5.24E+06 and 4.00E+06 and 4.92E+06
L-Homoserine (metabolite signal) [3]: 1.76E+05 and 2.52E+05 and 1.58E+05
Lactate (C01432) metabolite signal [3]: 7.95E+06 and 9.12E+06 and 7.54E+06
Malate (C00149) metabolite signal [3]: 6.76E+04 and 6.17E+04 and 6.25E+04
Mannitol (C00392) metabolite signal [3]: 1.25E+05 and 1.54E+05 and 1.02E+05
N-Acetylneuraminate (metabolite signal) [3]: 1.98E+04 and 1.32E+04 and 1.62E+04
N-Glycoloyl-neuraminate (metabolite signal) [3]: 7.97E+04 and 1.42E+05 and 5.68E+04
NAD+ (C00003) metabolite signal [3]: 1.57E+04 and 4.46E+04 and 2.15E+04
Nicotinamide (C00153) metabolite signal [3]: 4.80E+07 and 5.08E+07 and 4.18E+07
Ornithine (metabolite signal) [3]: 1.57E+06 and 1.30E+06 and 1.16E+06
Oxaloacetate (C00036) metabolite signal [3]: 3.29E+04 and 5.49E+04 and 3.03E+04
Phosphoserine (metabolite signal) [3]: 0.00E+00 (2×) and 1.77E+04
Putrescine (metabolite signal) [3]: 4.04E+04 and 3.04E+04 and 2.63E+04
Pyridoxal (C00250) metabolite signal [3]: 5.25E+04 and 8.23E+04 and 7.59E+04
Pyruvate (C00022) metabolite signal [3]: 5.39E+05 and 7.10E+05 and 4.33E+05
S-Glutathionyl-L-cysteine (metabolite signal) [3]: 5.57E+04 and 6.02E+04 and 1.82E+04
Sedoheptulose 1-phosphate (C06222) metabolite signal [3]: 2.81E+03 and 3.84E+03 and 2.38E+03
Spermidine (metabolite signal) [3]: 7.32E+06 and 6.78E+06 and 6.25E+06
Spermine (metabolite signal) [3]: 7.58E+06 and 7.10E+06 and 6.92E+06
Succinate (C00042) metabolite signal [3]: 6.13E+04 and 9.94E+04 and 5.79E+04
Thymidine (C00214) metabolite signal [3]: 1.12E+04 and 1.26E+04 and 8.73E+03
UDP (C00015) metabolite signal [3]: 5.07E+04 and 1.42E+05 and 2.88E+04
UDP-N-acetyl-D-glucosamine (metabolite signal) [3]: 2.55E+03 and 3.51E+03 and 2.64E+03
UDP-glucose (C00029) metabolite signal [3]: 5.62E+03 and 1.08E+04 and 6.04E+03
Urate (C00366) metabolite signal [3]: 2.31E+04 and 2.80E+04 and 2.12E+04
Xanthine (C00385) metabolite signal [3]: 1.88E+05 and 1.43E+05 and 1.48E+05
alpha-D-Glucosamine 1-phosphate (metabolite signal) [3]: 8.86E+05 and 4.48E+05 and 1.21E+06
alpha-D-Ribose 1-phosphate (C00620) metabolite signal [3]: 2.29E+04 and 4.78E+04 and 2.91E+04
gamma-Glutamyl-gamma-aminobutyrate (metabolite signal) [3]: 9.00E+04 and 5.89E+04 and 7.26E+04
gamma-L-Glutamyl-D-alanine (metabolite signal) [3]: 1.81E+04 and 1.74E+04 and 1.70E+04
gamma-L-Glutamyl-L-cysteine (metabolite signal) [3]: 1.43E+04 and 3.68E+04 and 6.67E+03
